System: CAL-85-1
Experiment: normalised viability (% of control), CellTiter-Blue; higher = more viable cells (100 = DMSO, 0 = benzethonium chloride kill control)
Details: incubation time: 72 h
Summary of the method: (§1)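 Normalised viability is given for a single listed concentration of the series. In 384-well plates, breast cancer cell lines were incubated 72 h with compound, then read with CellTiter-Blue (2 h, 37 °C) at 560/590 nm. Per-plate scaling set vehicle to 100 and a positive kill control to 0, with Z'-factor quality control.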

SMILES | normalised viability [%]
O=P1(NCCCl)OCCCN1CCCl (configuration not stated) [Ifosfamide] (1 nM) | 84.3

System: MDA-MB-453
Experiment: as above
Details: incubation time: 72 h
Summary of the method: as §1

SMILES | normalised viability [%]
Cc1ccc(C(=O)N(CCCN)[C@@H](c2oc3cc(Cl)ccc3c(=O)c2Cc2ccccc2)C(C)C)cc1 (0.1 nM) | 101
Clc1ccc(Nc2nnc(Cc3ccncc3)c3ccccc23)cc1 [Vatalanib] (1 nM) | 99.8
COc1cc([C@@H]2c3cc4c(cc3[C@@H](O[C@@H]3O[C@@H]5CO[C@@H](C)O[C@H]5[C@H](O)[C@H]3O)[C@H]3COC(=O)[C@H]23)OCO4)cc(OC)c1O [Etoposide] (1 nM) | 103
CC1(C)NC(=O)N(c2ccc([N+](=O)[O-])c(C(F)(F)F)c2)C1=O [Nilutamide] (1 nM) | 112
CO[C@H]1/C=C\C=C(/C)C(=O)NC2=CC(=O)C(NCCN(C)C)=C(C[C@@H](C)C[C@H](OC)[C@H](O)[C@@H](C)/C=C(\C)[C@@H]1OC(N)=O)C2=O [Alvespimycin] (0.1 nM) | 99.2
O=C1CCC(N2C(=O)c3ccccc3C2=O)C(=O)N1 (configuration not stated) [Thalidomide] (1 nM) | 108
Cc1ccc(-n2nc(C(C)(C)C)cc2NC(=O)Nc2ccc(OCCN3CCOCC3)c3ccccc23)cc1 [Doramapimod] (1 nM) | 104
O=P1(NCCCl)OCCCN1CCCl (configuration not stated) [Ifosfamide] (1 nM) | 107

System: BT-474
Experiment: as above
Details: incubation time: 72 h
Summary of the method: as §1

SMILES | normalised viability [%]
Cc1ccc(C(=O)N(CCCN)[C@@H](c2oc3cc(Cl)ccc3c(=O)c2Cc2ccccc2)C(C)C)cc1 (0.1 nM) | 68.8
Clc1ccc(Nc2nnc(Cc3ccncc3)c3ccccc23)cc1 [Vatalanib] (1 nM) | 86.8
COc1cc([C@@H]2c3cc4c(cc3[C@@H](O[C@@H]3O[C@@H]5CO[C@@H](C)O[C@H]5[C@H](O)[C@H]3O)[C@H]3COC(=O)[C@H]23)OCO4)cc(OC)c1O [Etoposide] (1 nM) | 91.5
CC1(C)NC(=O)N(c2ccc([N+](=O)[O-])c(C(F)(F)F)c2)C1=O [Nilutamide] (1 nM) | 95.7
CO[C@H]1/C=C\C=C(/C)C(=O)NC2=CC(=O)C(NCCN(C)C)=C(C[C@@H](C)C[C@H](OC)[C@H](O)[C@@H](C)/C=C(\C)[C@@H]1OC(N)=O)C2=O [Alvespimycin] (0.1 nM) | 102
O=C1CCC(N2C(=O)c3ccccc3C2=O)C(=O)N1 (configuration not stated) [Thalidomide] (1 nM) | 76.9
Cc1ccc(-n2nc(C(C)(C)C)cc2NC(=O)Nc2ccc(OCCN3CCOCC3)c3ccccc23)cc1 [Doramapimod] (1 nM) | 112
O=P1(NCCCl)OCCCN1CCCl (configuration not stated) [Ifosfamide] (1 nM) | 86.7

System: Hs578T
Experiment: as above
Details: incubation time: 72 h
Summary of the method: as §1

SMILES | normalised viability [%]
Cc1ccc(C(=O)N(CCCN)[C@@H](c2oc3cc(Cl)ccc3c(=O)c2Cc2ccccc2)C(C)C)cc1 (0.1 nM) | 135
Clc1ccc(Nc2nnc(Cc3ccncc3)c3ccccc23)cc1 [Vatalanib] (1 nM) | 99.8
COc1cc([C@@H]2c3cc4c(cc3[C@@H](O[C@@H]3O[C@@H]5CO[C@@H](C)O[C@H]5[C@H](O)[C@H]3O)[C@H]3COC(=O)[C@H]23)OCO4)cc(OC)c1O [Etoposide] (1 nM) | 97.3
CC1(C)NC(=O)N(c2ccc([N+](=O)[O-])c(C(F)(F)F)c2)C1=O [Nilutamide] (1 nM) | 126
CO[C@H]1/C=C\C=C(/C)C(=O)NC2=CC(=O)C(NCCN(C)C)=C(C[C@@H](C)C[C@H](OC)[C@H](O)[C@@H](C)/C=C(\C)[C@@H]1OC(N)=O)C2=O [Alvespimycin] (0.1 nM) | 117
O=C1CCC(N2C(=O)c3ccccc3C2=O)C(=O)N1 (configuration not stated) [Thalidomide] (1 nM) | 106
Cc1ccc(-n2nc(C(C)(C)C)cc2NC(=O)Nc2ccc(OCCN3CCOCC3)c3ccccc23)cc1 [Doramapimod] (1 nM) | 101
O=P1(NCCCl)OCCCN1CCCl (configuration not stated) [Ifosfamide] (1 nM) | 55.3

System: HCC1937
Experiment: as above
Details: incubation time: 72 h
Summary of the method: as §1

SMILES | normalised viability [%]
Cc1ccc(C(=O)N(CCCN)[C@@H](c2oc3cc(Cl)ccc3c(=O)c2Cc2ccccc2)C(C)C)cc1 (0.1 nM) | 93
Clc1ccc(Nc2nnc(Cc3ccncc3)c3ccccc23)cc1 [Vatalanib] (1 nM) | 78.3
COc1cc([C@@H]2c3cc4c(cc3[C@@H](O[C@@H]3O[C@@H]5CO[C@@H](C)O[C@H]5[C@H](O)[C@H]3O)[C@H]3COC(=O)[C@H]23)OCO4)cc(OC)c1O [Etoposide] (1 nM) | 86
CC1(C)NC(=O)N(c2ccc([N+](=O)[O-])c(C(F)(F)F)c2)C1=O [Nilutamide] (1 nM) | 114
CO[C@H]1/C=C\C=C(/C)C(=O)NC2=CC(=O)C(NCCN(C)C)=C(C[C@@H](C)C[C@H](OC)[C@H](O)[C@@H](C)/C=C(\C)[C@@H]1OC(N)=O)C2=O [Alvespimycin] (0.1 nM) | 113
O=C1CCC(N2C(=O)c3ccccc3C2=O)C(=O)N1 (configuration not stated) [Thalidomide] (1 nM) | 90
Cc1ccc(-n2nc(C(C)(C)C)cc2NC(=O)Nc2ccc(OCCN3CCOCC3)c3ccccc23)cc1 [Doramapimod] (1 nM) | 87
O=P1(NCCCl)OCCCN1CCCl (configuration not stated) [Ifosfamide] (1 nM) | 87.6

System: HDQ-P1
Experiment: normalised response (% of control), CellTiter-Glo; higher = more viable cells (100 = DMSO, 0 = benzethonium chloride kill control)
Details: incubation time: 72 h
Summary of the method: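 Compound was dispensed into 384-well plates at 5 concentrations in 10-fold steps spanning a 10,000-fold range specific to that compound. Breast cancer cell lines were added as 20 µl suspension and left for 72 h before CellTox Green fluorescence (485/520 nm) and then CellTiter-Glo luminescence, read after 10 min at room temperature. Each reported value is the normalised signal at one concentration, with 0.1 % DMSO set at 100 and a positive kill control at 0 on each plate.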

SMILES | normalised response [%]
Cc1ccc(C(=O)N(CCCN)[C@@H](c2oc3cc(Cl)ccc3c(=O)c2Cc2ccccc2)C(C)C)cc1 (0.1 nM) | 100
Clc1ccc(Nc2nnc(Cc3ccncc3)c3ccccc23)cc1 [Vatalanib] (1 nM) | 103
COc1cc([C@@H]2c3cc4c(cc3[C@@H](O[C@@H]3O[C@@H]5CO[C@@H](C)O[C@H]5[C@H](O)[C@H]3O)[C@H]3COC(=O)[C@H]23)OCO4)cc(OC)c1O [Etoposide] (1 nM) | 105
CC1(C)NC(=O)N(c2ccc([N+](=O)[O-])c(C(F)(F)F)c2)C1=O [Nilutamide] (1 nM) | 101
